Results taken from US20050187221A1, “Method of treating ischemia reperfusion injury” (Japan Tobacco Inc., priority 2003, published 2005).
Structures can show the parent of a compound that is named as a salt.

Columns and labels:
[1] = test system: hearts of Sprague-Dawley rats (myocardial ischemia reperfusion injury); assay: Cardiac function of isolated Langendorff-perfused rat hearts after 30 min global ischemia and 60 min reperfusion; format: ex vivo
Procedure: Sixteen Sprague-Dawley rats (300 g, male) were divided into a control group (“C group,” n=8) and a group administered (−)-ethyl N-{3,5-dichloro-2-hydroxy-4-[2-(4-methylpiperazin-1-yl)ethoxy]benzoyl}-L-phenylalaninate dihydrochloride (“J group,” n=8). All rats were anesthesized by intraperitoneal injection of sodium pentobarbital (50 mg/kg), and either (a) 0.5 mL of saline (C group) or (b) 10 mg/kg of (−)-ethyl N-{3,5-dichloro-2-hydroxy-4-[2-(4-methylpiperazin-1-yl)ethoxy]benzoyl}-L-phenylalaninate dihydrochloride dissolved in 5% mannitol (J group) was administered intraperitoneally to the rats. Anticoagulation was ensured by the intraperitoneal administration of 200 USP units of heparin.
Ten minutes after the administration of heparin and either (a) saline (C group) or (b) 10 mg/kg of (−)-ethyl N-{3,5-dichloro-2-hydroxy-4-[2-(4-methylpiperazin-1-yl)ethoxy]benzoyl}-L-phenylalaninate dihydrochloride dissolved in 5% mannitol (J group), the hearts of the rats were excised and perfused with modified Krebs-Henseleit buffer (120.0 mM NaCl, 4.5 mM KCl, 20.0 mM NaHCO3, 1.2 mM KH2PO4, 1.2 MgCl2, 2.5 mM CaCl2, and 10.0 mM glucose: gassed with 95% O2+5% CO2 to obtain a pH of 7.4 at 37° C.) at the pressure equal to 1 m H2O by means of a Langendorff apparatus. A thin-wall latex balloon was inserted into the left ventricle through the left atrium to monitor left ventricular pressure and to control left ventricular volume.
After stabilization, heart rate (HR), left ventricular developed pressure (LVDP), maximum dP/dt (maximum dP/dt), and coronary flow (CF) were measured with LV diastolic pressure stabilized at 10 mm Hg. The hearts were subjected to global ischemia at 37° C. for 30 minutes, followed by 60 minutes of reperfusion. The balloon was deflated during ischemia, and the hearts were not paced during reperfusion. HR, LVDP, maximum dP/dt, and CF were continuously measured after reperfusion and analyzed using a Polygraph System (Nihon Kouden, Japan).
There were significant differences between the two groups, however, following global ischemia and reperfusion. FIGS. 1 and 2 depict the cardiac function (as measured by LVDP and maximum dP/dt) after ischemia reperfusion between the C and J groups. For the following parameters, data are expressed as mean±standard error of the mean (SEM). The difference in the data on functional recoveries were determined with one-way repeated measure ANOVA. The difference in the data on CPK leakage and tissue cytokine concentrations were determined with unpaired Student's t test. A p value of less than 0.05 was considered statistically significant.

[2] = test system: cardiac myocytes (CPK leakage); assay: Creatine phosphokinase (CPK) leakage into the coronary effluent after reperfusion; format: ex vivo (isolated perfused hearts from dosed rats), Sprague-Dawley rats; conditions: 10 mg/kg intraperitoneally; coronary effluent for 60 minutes after reperfusion; mean±SEM; C group 140±61, p<0.05
Procedure: (§1) Sixteen Sprague-Dawley rats (300 g, male) were divided into a control group (“C group,” n=8) and a group administered (−)-ethyl N-{3,5-dichloro-2-hydroxy-4-[2-(4-methylpiperazin-1-yl)ethoxy]benzoyl}-L-phenylalaninate dihydrochloride (“J group,” n=8). All rats were anesthesized by intraperitoneal injection of sodium pentobarbital (50 mg/kg), and either (a) 0.5 mL of saline (C group) or (b) 10 mg/kg of (−)-ethyl N-{3,5-dichloro-2-hydroxy-4-[2-(4-methylpiperazin-1-yl)ethoxy]benzoyl}-L-phenylalaninate dihydrochloride dissolved in 5% mannitol (J group) was administered intraperitoneally to the rats. Anticoagulation was ensured by the intraperitoneal administration of 200 USP units of heparin. […]
After stabilization, heart rate (HR), left ventricular developed pressure (LVDP), maximum dP/dt (maximum dP/dt), and coronary flow (CF) were measured with LV diastolic pressure stabilized at 10 mm Hg. […] HR, LVDP, maximum dP/dt, and CF were continuously measured after reperfusion and analyzed using a Polygraph System (Nihon Kouden, Japan). […]
There were significant differences between the two groups, however, following global ischemia and reperfusion. FIGS. 1 and 2 depict the cardiac function (as measured by LVDP and maximum dP/dt) after ischemia reperfusion between the C and J groups. For the following parameters, data are expressed as mean±standard error of the mean (SEM). […]

IL-1β = assay: Tissue level of IL-1β in the myocardium after reperfusion (ELISA); format: ex vivo (isolated Langendorff-perfused heart after in vivo dosing), Sprague-Dawley rats; conditions: 10 mg/kg intraperitoneally; after 60 min reperfusion; mean±SEM; C group 3700±700, not statistically significantly different
Procedure: as §1
(§2) After stabilization, heart rate (HR), left ventricular developed pressure (LVDP), maximum dP/dt (maximum dP/dt), and coronary flow (CF) were measured with LV diastolic pressure stabilized at 10 mm Hg. […] HR, LVDP, maximum dP/dt, and CF were continuously measured after reperfusion and analyzed using a Polygraph System (Nihon Kouden, Japan).
(§3) After 60 minutes of reperfusion, frozen sections of the hearts were made and stored at −80° C. for further assessment. […] The concentrations of tissue inflammatory cytokines were measured using ELISA kits (TNF-α, IL-1β, and IL-6: Biosource International, California; and IL-8: Immuno-Biological Laboratories, Gunma, Japan) according to the manufacturer's recommendation. […]

TNF-α = assay: Tissue level of TNF-α in the myocardium after reperfusion (ELISA); set-up: species or system Sprague-Dawley rats; conditions: 10 mg/kg intraperitoneally; after 60 min reperfusion; mean±SEM; C group 550±80, p<0.05
Procedure: as §1, §2, §3

IL-8 = assay: Tissue level of IL-8 in the myocardium after reperfusion (ELISA); format: ex vivo (isolated Langendorff-perfused heart), Sprague-Dawley rats; conditions: 10 mg/kg intraperitoneally; after 60 min reperfusion; mean±SEM; C group 240±40, p<0.05
Procedure: as §1, §2, §3

IL-6 = assay: Tissue level of IL-6 in the myocardium after reperfusion (ELISA); format: ex vivo (isolated Langendorff-perfused heart, dosed in vivo), Sprague-Dawley rats; conditions: 10 mg/kg intraperitoneally; after 60 min reperfusion; mean±SEM; C group 300±80, p<0.05
Procedure: as §1, §2, §3

CCOC(=O)[C@H](Cc1ccccc1)NC(=O)c1cc(Cl)c(OCCN2CCN(C)CC2)c(Cl)c1O [(−)-ethyl N-{3,5-dichloro-2-hydroxy-4-[2-(4-methylpiperazin-1-yl)ethoxy]benzoyl}-L-phenylalaninate dihydrochloride]
peak value of percent recovery of LVDP after reperfusion ([1]; 10 mg/kg intraperitoneally 10 min before heart excision, 30 min global ischemia at 37° C., 60 min reperfusion, percentage of basal LVDP, mean±SEM, C group 39±6%, p<0.05): 79±5% | peak value of percent recovery of maximum dP/dt after reperfusion ([1]; 10 mg/kg intraperitoneally 10 min before heart excision, 30 min global ischemia, 60 min reperfusion, percentage of basal maximum dP/dt, mean±SEM, C group 54±7%, p<0.05): 80±4% | percent recovery of LVDP versus C group over time ([1]; 10 mg/kg intraperitoneally, at 20, 30, 40, 50, and 60 minutes after reperfusion): Significant improvements | percent recovery of max dP/dt versus C group over time ([1]; 10 mg/kg intraperitoneally, at 30, 40, 50, and 60 minutes after reperfusion): significant improvement | CPK leakage of the coronary effluent [2]: 2.9±2.0 IU/60 minutes | tissue level of IL-1β in the myocardium after reperfusion (IL-1β): 2600±200 pg/mg tissue | tissue level of TNF-α in the myocardium after reperfusion (TNF-α): 240±30 pg/mg tissue | tissue level of IL-8 in the myocardium after reperfusion (IL-8): 68±19 pg/mg tissue | tissue level of IL-6 in the myocardium after reperfusion (IL-6): 60±7 pg/mg tissue
